Test system: antibody response to sheep blood cells (hemaglutination titer)
Assay: Immune regulating test: suppression of hemaglutination titer by 4-fold factor in mice (i.p. drug, i.p. sheep blood cells), Tables 1-15
Format: in vivo, Swiss mice
Conditions: Mus musculus, ip, 192 h, × 3, intraperitoneal, minimum dose to suppress the hemaglutination titer by a 4-fold factor, 8 days after antigen, read-out: Immuno-Suppressant ED4-Fold
Description: The ability of compounds according to the above formulas to alter immune mechanisms in a host animal was measured by their activity according to the following test. Groups of five 20-gram Swiss mice were injected intraperitoneally with standardized suspensions of an antigen--in this instance sheep blook cells. […] Eight days after injection of the antigen, the mice were bled and the sera from each group pooled. Antibody determinations were made on the serum pools by a hemaglutination pattern procedure and comparisons made between treated and control animals. In Tables 1-18 which follow, the activity of the compounds listed therein is given in terms of the minimum dose of drug necessary to suppress the hemaglutination titer by a 4-fold factor in the treated mice as compared with control titers.

Compound	minimal effective dose [mg/kg]
Cc1cc2nc(NC(=O)Nc3cc(Cl)ccc3Cl)sc2cc1C	< 12.5
Cc1cc2nc(NC(=O)Nc3ccc(Cl)c(Cl)c3)sc2cc1C	50
Cc1cc2nc(NC(=O)Nc3cccc(Cl)c3)sc2cc1C	100
Cc1cc2nc(NC(=O)Nc3cccc(C(F)(F)F)c3)sc2cc1C	25
Cc1cc2nc(NC(=O)Nc3ccccc3Cl)sc2cc1C	< 100
Cc1cc2nc(NC(=O)Nc3ccccc3F)sc2cc1C	< 1.6
Cc1cc2nc(NC(=O)Nc3ccc(Cl)cc3)sc2cc1C	25
Cc1cc2nc(NC(=O)Nc3ccc(F)cc3)sc2cc1C	12.5
O=C(Nc1ccc(Cl)c(Cl)c1)Nc1nc2ccccc2[nH]1 [Table 1: 3,4-dichlorophenyl, H]	0.8
O=C(Nc1cccc(Cl)c1)Nc1nc2ccccc2[nH]1 [Table 1: m-chlorophenyl, H]	3.1
O=C(Nc1cccc(C(F)(F)F)c1)Nc1nc2ccccc2[nH]1 [Table 1: m-trifluoromethylphenyl, H]	100
O=C(Nc1nc2ccccc2[nH]1)Nc1ccccc1Cl [Table 1: o-chlorophenyl, H]	12.5
O=C(Nc1nc2ccccc2[nH]1)Nc1ccccc1F [Table 1: o-fluorophenyl, H]	1.6
Cc1ccccc1NC(=O)Nc1nc2ccccc2[nH]1 [Table 1: o-tolyl, H]	25
O=C(Nc1ccc(Br)cc1)Nc1nc2ccccc2[nH]1 [Table 1: p-bromophenyl, H]	100
O=C(Nc1ccc(Cl)cc1)Nc1nc2ccccc2[nH]1 [Table 1: p-chlorophenyl, H]	12.5
O=C(Nc1ccc(F)cc1)Nc1nc2ccccc2[nH]1 [Table 1: p-fluorophenyl, H]	6.2
Cc1ccc(NC(=O)Nc2nc3ccccc3[nH]2)cc1 [Table 1: p-tolyl, H]	6.2
O=C(Nc1nc2ccccc2[nH]1)Nc1cccc2ccccc12 [Table 1: α-naphthyl, H, N-(2-Benzimidazolyl)-N'-naphthylurea]	3.1
Cc1cccc(NC(=O)Nc2nc3cc(Cl)ccc3[nH]2)c1 [Table 2: m-tolyl]	25
COc1ccccc1NC(=O)Nc1nc2cc(Cl)ccc2[nH]1 [Table 2: o-anisyl]	< 6.2
O=C(Nc1nc2cc(Cl)ccc2[nH]1)Nc1ccccc1Cl [Table 2: o-chlorophenyl]	100
O=C(Nc1nc2cc(Cl)ccc2[nH]1)Nc1ccccc1F [Table 2: o-fluorophenyl]	< 100
Cc1ccccc1NC(=O)Nc1nc2cc(Cl)ccc2[nH]1 [Table 2: o-tolyl]	100
O=C(Nc1ccc(Cl)cc1)Nc1nc2cc(Cl)ccc2[nH]1 [Table 2: p-chlorophenyl]	6.2
O=C(Nc1ccc(F)cc1)Nc1nc2cc(Cl)ccc2[nH]1 [Table 2: p-fluorophenyl]	< 12.5

Compound	minimal effective dose [mg/kg]
Cc1ccc(NC(=O)Nc2nc3cc(Cl)ccc3[nH]2)cc1 [Table 2: p-tolyl]	50
O=C(Nc1ccccc1)Nc1nc2cc(Cl)ccc2[nH]1 [Table 2: phenyl]	25
O=C(Nc1nc2cc(Cl)ccc2[nH]1)Nc1cccc2ccccc12 [Table 2: α-naphthyl]	6.2
CCOC(=O)c1ccc2[nH]c(NC(=O)Nc3cccc(Cl)c3)nc2c1 [Table 3: m-chlorophenyl]	50
CCOC(=O)c1ccc2[nH]c(NC(=O)Nc3cccc(C)c3)nc2c1 [Table 3: m-tolyl]	< 12.5
CCOC(=O)c1ccc2[nH]c(NC(=O)Nc3cccc(C(F)(F)F)c3)nc2c1 [Table 3: m-trifluoromethylphenyl]	100
CCOC(=O)c1ccc2[nH]c(NC(=O)Nc3ccccc3Cl)nc2c1 [Table 3: o-chlorophenyl]	0.4
CCOC(=O)c1ccc2[nH]c(NC(=O)Nc3ccccc3F)nc2c1 [Table 3: o-fluorophenyl]	< 6.2
CCOC(=O)c1ccc2[nH]c(NC(=O)Nc3ccccc3C)nc2c1 [Table 3: o-tolyl]	25
CCOC(=O)c1ccc2[nH]c(NC(=O)Nc3ccc(Cl)cc3)nc2c1 [Table 3: p-chlorophenyl]	50
CCOC(=O)c1ccc2[nH]c(NC(=O)Nc3ccc(F)cc3)nc2c1 [Table 3: p-fluorophenyl]	25
CCOC(=O)c1ccc2[nH]c(NC(=O)Nc3ccc(C)cc3)nc2c1 [Table 3: p-tolyl]	100
CCOC(=O)c1ccc2[nH]c(NC(=O)Nc3ccccc3)nc2c1 [Table 3: phenyl]	< 25
CCOC(=O)c1ccc2[nH]c(NC(=O)Nc3cccc4ccccc34)nc2c1 [Table 3: α-naphthyl]	6.2
O=C(Nc1cccc(Cl)c1)Nc1nc2cc(C(F)(F)F)ccc2[nH]1 [Table 4: am-chlorophenyl, CF3]	50 to 200
O=C(Nc1ccccc1)Nc1nc2cc(C(F)(F)F)ccc2[nH]1 [Table 4: phenyl, CF3]	12.5
Cc1ccc2[nH]c(NC(=O)Nc3ccccc3)nc2c1 [Table 4: phenyl, CH3]	100
O=C(Nc1nc2cc(C(F)(F)F)ccc2[nH]1)Nc1cccc2ccccc12 [Table 4: α-naphthyl, CF3]	< 50
Cc1ccc2[nH]c(NC(=O)Nc3cccc4ccccc34)nc2c1 [Table 4: α-naphthyl, CH3]	< 0.4
Cc1cc2nc(NC(=O)Nc3ccc(F)cc3F)[nH]c2cc1C [Table 5: 2,4-difluorophenyl, CH3, CH3]	0.4
Cc1cc2nc(NC(=O)Nc3cc(Cl)ccc3Cl)[nH]c2cc1C [Table 5: 2,5-dichlorophenyl, CH3, CH3]	< 25
Cc1cc2nc(NC(=O)Nc3ccc(Cl)c(Cl)c3)[nH]c2cc1C [Table 5: 3,4-dichlorophenyl, CH3, CH3]	100
Cc1cc2nc(NC(=O)Nc3cccc(Cl)c3)[nH]c2cc1C [Table 5: m-chlorophenyl, CH3, CH3]	800
Cc1cccc(NC(=O)Nc2nc3cc(C)c(C)cc3[nH]2)c1 [Table 5: m-tolyl, CH3, CH3]	12.5
Cc1cc2nc(NC(=O)Nc3ccccc3F)[nH]c2cc1C [Table 5: o-fluorophenyl, CH3, CH3]	100
Cc1cc2nc(NC(=O)Nc3ccccc3C)[nH]c2cc1C [Table 5: o-tolyl, CH3, CH3]	12.5

Compound	minimal effective dose [mg/kg]
COc1ccc(NC(=O)Nc2nc3cc(C)c(C)cc3[nH]2)cc1 [Table 5: p-anisyl, CH3, CH3]	12.5
Cc1cc2nc(NC(=O)Nc3ccc(Br)cc3)[nH]c2cc1C [Table 5: p-bromophenyl, CH3, CH3]	12.5
Cc1cc2nc(NC(=O)Nc3ccc(Cl)cc3)[nH]c2cc1C [Table 5: p-chlorophenyl, CH3, CH3]	12.5
Cc1ccc(NC(=O)Nc2nc3cc(C)c(C)cc3[nH]2)cc1 [Table 5: p-tolyl, CH3, CH3]	3
Cc1cc2nc(NC(=O)Nc3ccccc3)[nH]c2cc1C [Table 5: phenyl, CH3, CH3]	12.5
O=C(Nc1ccccc1)Nc1nc2cc(Cl)c(Cl)cc2[nH]1 [Table 5: phenyl, Cl, Cl]	12.5
Cc1cc2nc(NC(=O)Nc3cccc4ccccc34)[nH]c2cc1C [Table 5: α-naphthyl, CH3, CH3]	50
O=C(Nc1nc2cc(Cl)c(Cl)cc2[nH]1)Nc1cccc2ccccc12 [Table 5: α-naphthyl, Cl, Cl]	> 12.5
O=C(Nc1nc2c([N+](=O)[O-])cccc2[nH]1)Nc1ccccc1F [Table 6: 4(7), o-fluorophenyl]	3.1
O=C(Nc1ccccc1)Nc1nc2c([N+](=O)[O-])cccc2[nH]1 [Table 6: 4(7), phenyl]	25
CN(C(=O)Nc1cccc(Cl)c1)c1nc2ccccc2[nH]1 [Table 7: m-chlorophenyl, H]	25
CN(C(=O)Nc1ccc(Cl)cc1)c1nc2ccccc2[nH]1 [Table 7: p-chlorophenyl, H]	50
CN(C(=O)Nc1ccccc1)c1nc2ccccc2[nH]1 [Table 7: phenyl, H]	50
CN(C(=O)Nc1cccc2ccccc12)c1nc2ccccc2[nH]1 [Table 7: α-naphthyl, H]	25
Cn1c(NC(=O)Nc2cccc(Cl)c2)nc2ccccc21 [Table 8: m-chlorophenyl, methyl]	6.2
Cn1c(NC(=O)Nc2ccc(Cl)cc2)nc2ccccc21 [Table 8: p-chlorophenyl, methyl]	> 50
Cn1c(NC(=O)Nc2ccccc2)nc2ccccc21 [Table 8: phenyl, methyl]	3.1
O=C(Nc1ccccc1)Nc1nc2ccccc2n1-c1ccccc1 [Table 8: phenyl, phenyl]	50
Cn1c(NC(=O)Nc2cccc3ccccc23)nc2ccccc21 [Table 8: α-naphthyl, methyl]	> 50
O=C(Nc1cccc2ccccc12)Nc1nc2ccccc2n1-c1ccccc1 [Table 8: α-naphthyl, phenyl]	100
O=C(Nc1ccc(F)cc1)Nc1nc2cc3ccccc3cc2[nH]1 [Table 9: p-fluorophenyl]	> 25
O=C(Nc1ccccc1)Nc1nc2cc3ccccc3cc2[nH]1 [Table 9: phenyl]	25
O=C(Nc1nc2cc3ccccc3cc2[nH]1)Nc1cccc2ccccc12 [Table 9: α-naphthyl]	50
O=C(Nc1cccc(Cl)c1)Nc1nc2c(ccc3ccccc32)[nH]1 [Table 10: m-chlorophenyl]	0.05

From patent US4153709A, “N-Heterocyclic ureas as immune regulants” (Eli Lilly and Company, priority 1977, dated 1979)
